These results are taken from PubChem BioAssay AID276 (DTP/NCI, 2004).

The subject of the assay is B6C3F1 mice, Lewis lung carcinoma iv, survival T/C. Nature of the assay: NCI In Vivo Anticancer Drug Screen. Data for tumor model Lewis Lung Carcinoma (intravenous) in B6C3F1 mice. The conditions noted are these: endpoint: median survival time, schedule: Q01DX009 (ip), higher = longer survival. The essentials:
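Tumors were transplanted into mice, which were then dosed with compound or vehicle. Survival was recorded in each group, and the treated figure was divided by the control figure.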

The mark [1] stands for this setting: dose: 25.0 mg/kg/injection, vehicle: water.
[2] abbreviates: dose: 50.0 mg/kg/injection, vehicle: water.
Setting [3] is: dose: 100.0 mg/kg/injection, vehicle: water.
The mark [4] stands for this setting: dose: 200.0 mg/kg/injection, vehicle: water.
The mark [5] stands for this setting: dose: 12.5 mg/kg/injection, vehicle: water.
The mark [6] stands for this setting: dose: 12.5 mg/kg/injection, vehicle: saline.
Setting [7] is: dose: 12.5 mg/kg/injection, vehicle: suspension in saline.
Where [8] appears, read: dose: 25.0 mg/kg/injection, vehicle: saline.
The mark [9] stands for this setting: dose: 25.0 mg/kg/injection, vehicle: suspension in saline.
The mark [10] stands for this setting: dose: 50.0 mg/kg/injection, vehicle: suspension in saline.
The mark [11] stands for this setting: dose: 12.5 mg/kg/injection, vehicle: saline with Tween-80.
[12] abbreviates: dose: 50.0 mg/kg/injection, vehicle: saline.
Setting [13] is: dose: 100.0 mg/kg/injection, vehicle: saline.

The structures appear in SMILES notation. “And” between values parts separate entries of the source, which are not always exact repeats. Equal entries are not always repeated. Toxic doses and inconclusive results are not listed. Positions of bridges follow the written chain, without caps; N, C: chain ends. Residues, ends and D or L forms follow the SMILES beside them.

As for `CCC(C)C1NC(=O)C(CC(C)C)NC(=O)C(C(C)C)NC(=O)C2CSSCC(NC1=O)C(=O)N2` (stereo not given) (cyclo(CCVLI); disulfide 1-2; configuration not given here), the T/C reads like this: (dose: 31.25 micrograms/kg/injection, vehicle: Klucel (hydroxypropylcellulose) (HPC)) 93 % of control; (dose: 62.5 micrograms/kg/injection, vehicle: Klucel (hydroxypropylcellulose) (HPC)) 99 % of control; (dose: 125.0 micrograms/kg/injection, vehicle: Klucel (hydroxypropylcellulose) (HPC)) 93 % of control; (dose: 250.0 micrograms/kg/injection, vehicle: Klucel (hydroxypropylcellulose) (HPC)) 98 % of control; (dose: 500.0 micrograms/kg/injection, vehicle: Klucel (hydroxypropylcellulose) (HPC)) 88 % of control; (dose: 1000.0 micrograms/kg/injection, vehicle: Klucel (hydroxypropylcellulose) (HPC)) 100 % of control.
Consider `O=C1c2ccccc2C(=O)c2c3c(cc(NCCNCCO)c21)N(CCO)CCN3`, for which the T/C is 101 % of control (dose: 12.5 mg/kg/injection, vehicle: DMSO); 95 % of control (dose: 25.0 mg/kg/injection, vehicle: DMSO); 104 % of control (dose: 50.0 mg/kg/injection, vehicle: DMSO); 101 % of control (dose: 100.0 mg/kg/injection, vehicle: DMSO); 96 % of control (dose: 200.0 mg/kg/injection, vehicle: DMSO).
Regarding `OC1OC2COC(c3ccccc3)OC2C(O)C1O` (stereo not given), the T/C runs as follows: under setting [1], 101 % of control; under setting [2], 99 % of control; under setting [3], 98 % of control; under setting [4], 101 % of control; (dose: 400.0 mg/kg/injection, vehicle: water) 99 % of control; (dose: 800.0 mg/kg/injection, vehicle: water) 93 % of control.
Turning to `C[C@]12C=CC(=O)C=C1CC[C@@H]1[C@@H]2C(=O)C[C@@]2(C)[C@H]1CC[C@]2(O)C(=O)CO`, the T/C reads like this: under setting [5], 100 % of control; under setting [1], 100 % of control; under setting [2], 96 % of control; under setting [3], 98 % of control; under setting [4], 94 % of control.
With `NNC(=S)N/N=C/c1ccccn1`, the T/C is, setting by setting: (dose: 1.56 mg/kg/injection, vehicle: suspension in saline) 102 % of control; (dose: 3.12 mg/kg/injection, vehicle: suspension in saline) 86 % of control; (dose: 6.25 mg/kg/injection, vehicle: saline) 115 % of control; (dose: 6.25 mg/kg/injection, vehicle: suspension in saline) 98 % of control; under setting [6], 115 % of control; under setting [7], 108 % of control. Also, the T/C runs as follows: under setting [8], 154 % of control; under setting [9], 101 % of control.
Consider `Nc1nc(=S)c2ncn(C3CC(O)C(CO)O3)c2[nH]1` (stereo not given), for which the T/C reads like this: under setting [7], 113 % of control; under setting [9], 100 % of control; under setting [10], 108 % of control; (dose: 100.0 mg/kg/injection, vehicle: suspension in saline) 103 % of control; (dose: 200.0 mg/kg/injection, vehicle: suspension in saline) 95 % of control; (dose: 400.0 mg/kg/injection, vehicle: suspension in saline) 90 % of control.
As for `CCOC(=O)Nc1cc2c(c(N)n1)N=C(c1ccc(Cl)cc1Cl)CN2`, the T/C (dose: 6.25 mg/kg/injection, vehicle: saline with Tween-80) is 97 % of control and the T/C under setting [11] was 113 % of control.
Consider `CN(C)CCC(=O)C(=Cc1ccc(O)cc1)C(=O)CCN(C)C`, for which the T/C runs as follows: under setting [6], 97 % of control; under setting [8], 101 % of control; under setting [12], 102 % of control; under setting [13], 105 % of control and 106 % of control; (dose: 200.0 mg/kg/injection, vehicle: saline) 104 % of control and 107 % of control.
For `CC1=C[S+](c2ccccc2)c2cccc3cc4ccccc4c1c23` (stereo not given), the T/C is 106 % of control (dose: 0.12 mg/kg/injection, vehicle: saline with Tween-80); 113 % of control (dose: 0.25 mg/kg/injection, vehicle: saline with Tween-80); 95 % of control (dose: 0.5 mg/kg/injection, vehicle: saline with Tween-80); 100 % of control (dose: 1.0 mg/kg/injection, vehicle: saline with Tween-80); 106 % of control (dose: 2.0 mg/kg/injection, vehicle: saline with Tween-80); 101 % of control (dose: 4.0 mg/kg/injection, vehicle: saline with Tween-80).
With `Cn1cnc([N+](=O)[O-])c1Sc1ncn[nH]1`, the T/C is 104 % of control under setting [6], 111 % of control under setting [8], 124 % of control under setting [12] and 116 % of control under setting [13].
Consider `O=C(O)C(CSC(c1ccccc1)(c1ccccc1)c1ccccc1)N=Cc1cccs1` (stereo not given), for which the T/C runs as follows: under setting [7], 104 % of control; under setting [9], 100 % of control; under setting [10], 105 % of control.
For `NC(CNC(=O)CBr)C(=O)O` (stereo not given), the T/C (dose: 6.25 mg/kg/injection, vehicle: water) is 102 % of control; the T/C under setting [5] is 95 % of control; the T/C under setting [1] was 109 % of control; the T/C under setting [2] is 109 % of control.
Turning to `NC(C(=O)O)c1ccc(CBr)cc1` (stereo not given), the T/C is, setting by setting: under setting [11], 97 % of control; (dose: 25.0 mg/kg/injection, vehicle: saline with Tween-80) 100 % of control; (dose: 50.0 mg/kg/injection, vehicle: saline with Tween-80) 105 % of control; (dose: 100.0 mg/kg/injection, vehicle: saline with Tween-80) 93 % of control.
On to `OCCO`, for which the T/C is, setting by setting: (dose: 0.12 % in 0.5 ml injection vol, vehicle: water) 107 % of control; (dose: 0.25 % in 0.5 ml injection vol, vehicle: water) 109 % of control; (dose: 0.5 % in 0.5 ml injection vol, vehicle: water) 95 % of control; (dose: 1.0 % in 0.5 ml injection vol, vehicle: water) 99 % of control; (dose: 2.0 % in 0.5 ml injection vol, vehicle: water) 97 % of control; (dose: 4.0 % in 0.5 ml injection vol, vehicle: water) 99 % of control.
Take `CC(C)[C@]12O[C@H]1[C@@H]1O[C@]13[C@]1(O[C@H]1C[C@H]1C4=C(C(=O)OC4)[C@@H](O)C[C@@]13C)[C@@H]2O`: the T/C (dose: 25.0 micrograms/kg/injection, vehicle: saline + alcohol) is 98 % of control; the T/C (dose: 50.0 micrograms/kg/injection, vehicle: saline + alcohol) is 110 % of control; the T/C (dose: 100.0 micrograms/kg/injection, vehicle: saline + alcohol) was 102 % of control; the T/C (dose: 200.0 micrograms/kg/injection, vehicle: saline + alcohol) is 88 % of control; the T/C (dose: 400.0 micrograms/kg/injection, vehicle: saline + alcohol) was 107 % of control.
